Assay results published in patent US5456908A, “Polyamine-polyamine and polyamine-protein transport inhibitor conjugates and their use as pharmaceuticals and in research relating to polyamine transport” (priority 1994, dated 1995).
Where two headings read alike, the source gives them in different places.

Tests used:
DX5 human cancer cells = test: Cellular polyamine content by HPLC, DX5; type: cell-based; settings: DFMO 1 mM, Poly-SPM 20 μM
Experimental: (§1) To determine if the cytotoxicity and inhibition of polyamine transport evoked by the polyamine conjugates was,associated with depletion of cell polyamine contents, additional experiments were conducted which used HPLC to measure contents of PUT, SPD, and SPM in human uterine sarcoma and leukemia cells in the presence of poly-SPM, DFMO, and combined treatment with poly-SPM and DFMO. The latter combination was tested to determine if blockade of both transport and synthesis would promote greater decreases in polyamine content than either intervention alone. […] Further studies are planned to obtain further information regarding interactions between these pathways and their suitabilities as pharmacologic targets.

[1] = tested on: cultured pulmonary artery smooth muscle cells treated with DFMO; test: 14C-polyamine uptake in DFMO-treated pulmonary artery smooth muscle cells; settings: Bos taurus, 24 h, read-out: increase of polyamine uptake relative to control cells
Experimental: DFMO treatment consisted of the addition of 1 mM of DFMO to the cultures followed by a 24 hour incubation period.
After DFMO treatment and incubation, the respective conjugates were added in amounts ranging from about 0 to 20 μM simultaneously with 3 μM of a specific ^14 C-polyamine and the cells allowed to incubate for 30 minutes. After incubation, the content of cell associated radioactivity was determined.

[2] = tested on: L1210-MGBGr leukemic cell line deficient in polyamine transport; settings: polyamine synthesis blocked by DFMO; Ask et al.; cited from earlier work
[3] = tested on: DX5 human uterine sarcoma cells (MDR-positive); test: Cellular content of MDR substrates (vinblastine, Taxol), DX5; type: cell-based; settings: DFMO (1 mM)
Experimental: Complimentary experiments were conducted to determine whether the polyamine uptake inhibitors differentially affected the cytotoxicity and cellular uptake of vinblastine in MDR-negative and MDR-positive uterine sarcoma cells.

[4] = tested on: DX5 human uterine sarcoma cells (MDR-positive); test: 14C-polyamine uptake, DX5; type: cell-based; settings: DFMO (1 mM), 24 hours
Experimental: (§2) Additional studies were conducted to determine whether MES-SA and DX5 cell lines express a polyamine transport system, and, if so, whether this system(s) was inhibited by the poly-PUT and poly-SPM conjugate. […] In the current studies, ^14 C-SPD was added in concentrations of 3 μM and cells were incubated for 30 minutes at selected temperatures (4° and 37° C). The cells were rinsed with Hanks buffer, digested for 1 hour in 1N NaOH, and cell-associated radioactivity was determined. ^14 C-SPD uptake rate was normalized to protein content. Specific, carrier-mediated polyamine uptake was […] determined at […].
(§3) In many cells, DFMO increases polyamine transport. This is believed to be a compensatory mechanism that protects these cells from polyamine depletion. […] We therefore examined the impact of DFMO on polyamine transport rate and on vinblastine accumulation and cytotoxicity in MES-SA and DX5 cells.

[5] = tested on: MES-SA human uterine sarcoma cells; test: 14C-polyamine uptake, MES-SA; type: cell-based; settings: DFMO (1 mM), 24 hours
Experimental: as §2, §3

K562 human cancer cells = test: Cellular polyamine content by HPLC, K562; type: cell-based; settings: DFMO 1 mM, Poly-SPM 20 μM
Experimental: as §1

[6] = tested on: MES-SA human cancer cells; test: Cellular polyamine content by HPLC, MES-SA; type: cell-based; settings: DFMO 1 mM, Poly-SPM 20 μM
Experimental: as §1

[7] = tested on: K562/R7 human cancer cells; test: Cellular polyamine content by HPLC, K562/R7; type: cell-based; settings: DFMO 1 mM, Poly-SPM 20 μM
Experimental: as §1

[8] = tested on: DX5 human uterine sarcoma cells (MDR-positive); test: MTT cytotoxicity assay, DX5; settings: for IC50: Homo sapiens
Experimental: (§4) Cytotoxicity was assessed using the MTT assay in MES-SA and DX5 uterine sarcoma cell lines after a 24 hours exposure to ascending concentrations of the putrescine polymeric conjugates (poly-PUT conjugates) or its vehicle.
(§5) Complimentary experiments were conducted to determine whether the polyamine uptake inhibitors differentially affected the cytotoxicity and cellular uptake of vinblastine in MDR-negative and MDR-positive uterine sarcoma cells. […] The MTT assay was used to quantify the IC50 for vinblastine cytotoxicity in MES-SA and DX5 cells in the presence and absence of treatment with 100 μM poly-PUT. The calculation of cytotoxicity in these experiments accounted for the lethality associated with use of the conjugate alone.

[9] = tested on: cultured pulmonary artery smooth muscle cells; test: Hypoxia-induced fibronectin synthesis; type: cell-based, bovine
Text: This experiment was effected because hypoxic pulmonary hypertension is accompanied by the deposition of large quantities of fibronectin around pulmonary arteries. Therefore, there is some belief by researchers, including the present inventors, that the increased deposition of this protein may be an important cause of the sustained elevation in pulmonary arterial blood pressure. Also, hypoxia seems to cause pulmonary hypertension by a mechanism related to increased polyamine transport rather than increased de novo polyamine synthesis.

[10] = tested on: K567 Human leukemia cells; test: Cytotoxicity, K567 leukemia cells; settings: DFMO at 1 mM concentration; printed K562
[11] = tested on: MES-SA human uterine sarcoma cells; test: Cellular content of MDR substrates (vinblastine, Taxol), MES-SA; type: cell-based; settings: DFMO (1 mM)
[12] = tested on: R7 cells (MDR-positive variant of K567); test: Cytotoxicity, R7 leukemia cells; settings: DFMO at 1 mM concentration; MDR-positive variant of K562
[13] = tested on: non-mutant polyamine transport L1210 cells; settings: DFMO treatment; Ask et al.; cited from earlier work
[14] = tested on: MES-SA human uterine sarcoma cells; test: MTT cytotoxicity assay, MES-SA
Experimental: as §4, §5

[15] = tested on: MES-SA human uterine sarcoma cells
Experimental: as §4, §5

[16] = tested on: DX5 human uterine sarcoma cells (MDR-positive)
Experimental: as §4, §5

[17] = tested on: cultured pulmonary artery smooth muscle cells; test: 14C-polyamine uptake in cultured pulmonary artery smooth muscle cells; type: cell-based, bovine
Experimental: After this 30 minute period the cell-associated radioactivity was then measured to determine the uptake of polyamine by the cell culture.
Cell associated radioactivity was then measured.

[18] = conjugate 0-20 μM with 3 μM 14C-polyamine, 30 minutes

Which “Cellular Polyamine Content, SPD” value (DX5 human cancer cells) does the source give for `NCCCC(N)(C(=O)O)C(F)F` (stereo not drawn) [DFMO, α-difluoro-methylornithine] here?
Its value is 4191 pmoles/mg protein.

And the “Cellular Polyamine Content, SPM” value (DX5 human cancer cells)?
The value was 6831 pmoles/mg protein.

And the activation at 1000 µM [1]?
Its activation at 1000 µM is ~350%.

And the cure rate [2]?
Its cure rate is 33%.

And the “3H-Vinblastine Content” value [3]?
The value was 195 ± 8 pmoles/mg protein.

And the “14C-Polyamine uptake, PUT” value [4]?
Its value is 1.1 ± 0.04 pmoles/min/mg protein.

What about the “14C-Polyamine uptake, SPD” value [4] of the same compound?
The value was 1.6 ± .08 pmoles/min/mg protein.

And the “14C-Polyamine uptake, PUT” value [5]?
Its value is 0.67 ± 0.01 pmoles/min/mg protein.

What about the “14C-Polyamine uptake, SPD” value [5] of the same compound?
The value was 7.3 ± .06 pmoles/min/mg protein.

And the “Cellular Polyamine Content, SPD” value (K562 human cancer cells)?
Its value is 15791 pmoles/mg protein.

And the “Cellular Polyamine Content, SPM” value (K562 human cancer cells)?
The value was 17024 pmoles/mg protein.

And the “Cellular Polyamine Content, SPD” value [6]?
The value was 6100 pmoles/mg protein.

What about the “Cellular Polyamine Content, SPM” value [6] of the same compound?
Its value is 8824 pmoles/mg protein.

And the “Cellular Polyamine Content, SPD” value [7]?
Its value is 15809 pmoles/mg protein.

What about the “Cellular Polyamine Content, SPM” value [7] of the same compound?
The value was 15083 pmoles/mg protein.

And the toxicity to cells ([8]; DFMO at 1 mM concentration, MDR-positive variant of MES-SA)?
Its toxicity to cells is “not toxic”.

What about the “effect of DFMO treatment on sensitivity to vinblastine” value ([8]; DFMO treatment, vinblastine concentrations up to 5 μM) of the same compound?
Its value is “complete resistance”.

And the “Fibronectin Synthesis” value ([9]; Hypoxic)?
The value was 0.09 OD/mg protein.

And the “Fibronectin Synthesis” value ([9]; Normoxic)?
The value was 0.07 OD/mg protein.

And the toxicity to cells [10]?
The toxicity to cells was “not toxic”.

What about the “3H-Vinblastine Content” value [11] of the same compound?
Its value is 840 ± 28 pmoles/mg protein.

What about the toxicity to cells [12] of the same compound?
The toxicity to cells was “not toxic”.

And the “increase in survival time” value [13]?
Its value is “two”.

And the toxicity to cells ([14]; DFMO at 1 mM concentration)?
Its toxicity to cells is “not toxic”.

What about the “effect of DFMO treatment on the IC50 value for vinblastine” value ([14]; DFMO treatment) of the same compound?
The value was “failed to affect”.

Which IC50 ([8]; read-out: IC50, vinblastine cytotoxicity) does the source give for `CC[C@]1(O)C[C@@H]2CN(CCc3c([nH]c4ccccc34)[C@@](C(=O)OC)(c3cc4c(cc3OC)N(C)[C@H]3[C@@](O)(C(=O)OC)[C@H](OC(C)=O)[C@]5(CC)C=CCN6CC[C@]43[C@@H]65)C2)C1` [Vinblastine] here?
Its IC50 is 600 nM.

And the IC50 ([8]; read-out: IC50 for vinblastine)?
The IC50 was 500 nM.

And the IC50 [15]?
The IC50 was 7 nM.

And the IC50 [16]?
The IC50 was 116 nM.

And the IC50 ([14]; Homo sapiens, MES-SA, read-out: IC50, vinblastine cytotoxicity)?
The IC50 was 5 nM.

With `COc1ccc(CCN(C)CCCC(C#N)(c2ccc(OC)c(OC)c2)C(C)C)cc1OC` (stereo not drawn) [verapamil] as the compound, how does the “suppression of polyamine transport” value ([17]; agents known to inhibit the MDR, data not shown, 30 min) read?
Its value is 50-75%.

What does the source list for “Spd-BSA: conjugate between bovine serum albumin and spermidine using glutaraldehyde as a coupling agent”?
uptake of 14C-putrescine [17, 18]: inhibited; uptake of 14C-spermidine [17, 18]: inhibited
